Laboratory results: US10189880B2, “T cell receptors directed against Bob1 and uses thereof” (LEIDEN UNIVERSITY MEDICAL CENTER, priority 2014, dated 2019)
Values joined by “and” are separate entries in the source; they are usually repeats but may differ in a detail not shown here. Identical values can stand only once. “Also recorded” adds a separate entry of the source. Like-named read-outs stand apart in the source and are kept apart here.

Legend:
[1] = cited from earlier work
[2] = test system: CD3+ΔCD19+ cells; assay: Phase 1 clinical trial of iCasp9 T cells after haploidentical stem cell transplantation; type: in vivo, human
Description: This example presents results of a phase 1 clinical trial using an alternative suicide gene strategy. Briefly, donor peripheral blood mononuclear cells were co-cultured with recipient irradiated EBV-transformed lymphoblastoid cells (40:1) for 72 hrs, allodepleted with a CD25 immunotoxin and then transduced with a retroviral supernatant carrying the iCasp9 suicide gene and a selection marker (ΔCD19); ΔCD19 allowed enrichment to >90% purity via immunomagnetic selection.
Patients developing Grade I GvHD were treated with 0.4 mg/kg AP1903 as a 2-hour infusion. Protocols for administration of AP1903 to patients developing Grade I GvHD were established as follows. Patients developing GvHD after infusion of allodepleted T cells are biopsied to confirm the diagnosis and receive 0.4 mg/kg of AP1903 as a 2 h infusion. […] Patients developing grades 2-4 GvHD were administered standard systemic immunosuppressive therapy per institutional guidelines, in addition to the AP1903 dimerizer drug.
Three patients received iCasp9+ T cells after haplo-CD34+ stem cell transplantation (SCT), at dose levels between about 1×10^6 to about 3×10^6 cells/kg.

[3] = AP1903 in vitro effective signaling of cells; type: cell-based
Experimental: The fixed dose of AP1903 for injection used, for example, may be 0.4 mg/kg intravenously infused over 2 hours. The amount of AP1903 needed in vitro for effective signaling of cells is about 10-100 nM (MW: 1412 Da). This equates to 14-140 μg/L or ˜0.014-0.14 mg/kg ([…]). The dosage may vary according to the application, and may, in certain examples, be more in the range of 0.1-10 nM, or in the range of 50-150 nM, 10-200 nM, 75-125 nM, 100-500 nM, 100-600 nM, 100-700 nM, 100-800 nM, or 100-900 nM. Doses up to 1 mg/kg were well-tolerated in the Phase I study of AP1903 described above.

CC[C@H](C(=O)N1CCCC[C@H]1C(=O)O[C@H](CCc1ccc(OC)c(OC)c1)c1cccc(OCC(=O)NCCNC(=O)COc2cccc([C@@H](CCc3ccc(OC)c(OC)c3)OC(=O)[C@@H]3CCCCN3C(=O)[C@@H](CC)c3cc(OC)c(OC)c(OC)c3)c2)c1)c1cc(OC)c(OC)c(OC)c1 (relative stereo) [AP1903, 2-Piperidinecarboxylic acid, 1-[(2S)-1-oxo-2-(3,4,5-trimethoxyphenyl)butyl]-, 1,2-ethanediylbis[imino(2-oxo-2,1-ethanediyl)oxy-3,1-phenylene[(1R)-3-(3,4-dimethoxyphenyl)propylidene]]ester, [2S-[1(R*),2R*[S[S*[1(R*),2R*]]]]]-(9Cl)]
duration of the adverse event ([1]; 1.0 mg/kg): 32 min
onset of the adverse event after start of infusion ([1]; 1.0 mg/kg): 3 min
relation of plasma levels to dose ([1]; 0.01-1.0 mg/kg): directly proportional to dose
adverse event considered possibly related to AP1903 ([1]; 1 volunteer at the 1.0 mg/kg dosage): vasodilatation
plasma level as % of maximal concentration ([1]; 2 hours post-dose): ~7%
plasma level as % of maximal concentration ([1]; 10 hours post-dose): ~1%
serious adverse events ([1]; Phase 1 study in volunteers): No serious adverse events
safety and tolerability ([1]; all dose levels, 0.01 to 1.0 mg/kg): well-tolerated; also recorded: No significant adverse effects
incidence of adverse events ([1]; following each treatment): very low
severity of adverse events ([1]; human, in vivo): mild
mean Cmax / plasma concentrations ([1]; single IV infusion over 2 hours, 0.01-1.0 mg/kg dose range): 10 to 1275 ng/mL and 10 ng/mL
time to resolution of skin and liver aGvHD ([2]; after AP1903 administration): ≤ 24 h
ablation of CD3+ΔCD19+ cells ([2]; within 30 minutes of infusion, patients with grade I/II aGvHD, 0.4 mg/kg): > 90%
further reduction of CD3+ΔCD19+ cells ([2]; within 24 hours): further log reduction
amount needed in vitro for effective signaling of cells [3]: 10 to 100 nM
amount needed for effective signaling, converted ([3]; MW: 1412 Da): 14 to 140 µg/L
